Patent US20140275010A1, “QUATERNARY SALTS” (priority 2013, published 2014)

Assays:
[1] = tested on: Panc 05.04 cells: Pancreatic cancer cells (Q699H and K700E mutations in SF3B1); experiment: Cell viability assay (CellTiter-Glo), Panc 05.04 cells; type: cell-based; conditions: 72 hr; for Gl50 Panc 05.04: Panc 05.04 pancreatic cancer cells, SF3B1 Q699H and K700E, CellTiter-Glo; for Emax Panc 05.04: highest growth inhibition achieved in tested dose range
Procedure: (§1) Cells are seeded in 96-well plate with 2000 cells/100 uL/well and incubated overnight. Spent media was removed and fresh media containing compound (100 uL/well) with appropriate 9 concentrations are added. Each compound was treated in duplicate or triplicate manner at each concentration. DMSO concentration was adjusted to be 0.1%. Another plate was dedicated as Tz plate which was added 0.1% DMSO in media (100 uL/well) followed by CellTiter-Glo® (Promega corp., 50 uL/well) for ATP measurement as a surrogate of cell viability. Values from this plate are used as Tz. Compound treated plates are incubated for 72 hr at 37 C. Then, CellTiter-Glo® (50 uL/well) was added and ATP level was measured. Values from compound treated wells are used as Ti and DMSO treated wells are used as C.
(§2) Percentage growth inhibition was calculated as:
(§3) [(Ti−Tz)/(C−Tz)]×100 for concentrations for which Ti>/=Tz
(§4) [(Ti−Tz)/Tz]×100 for concentrations for which Ti<Tz.
(§5) *[time zero, (Tz), control growth (C), and test growth in the presence of drug with dose (Ti)] Growth inhibition of 50% (GI50) was calculated from [(Ti−Tz)/(C−Tz)]×100=50, which was the drug concentration resulting in a 50% reduction in the net protein increase in control cells during the drug incubation. The LC50 (concentration of drug resulting in a 50% reduction in the measured value at the end of the drug treatment as compared to that at the beginning) indicating a net loss of cells following treatment was calculated from [(Ti−Tz)/Tz]×100=−50.
(§6) Emax was defined as highest growth inhibition that particular compound achieved in tested dose range.

[2] = tested on: Ad2 pre-mRNA splicing in HeLa nuclear extract; experiment: In vitro splicing (biochemical) assay; conditions: in vitro splicing of Ad2 pre-mRNA, 30° C., 90 min, read-out: Biochem IC50
Procedure: In Vitro Splicing (Biochemical) Assay Protocol
Biotin-labeled pre-mRNA of an adenovirus type 2 construct with a deletion of intervening sequence (Ad2)^1 was prepared by in vitro transcription. The Ad2 construct containing Exon 1 (41 nt), Intron (231 nt), and Exon 2 (72 nt) was generated by gene synthesis and cloned into the EcoRI and XbaI sites of pGEM-3Z (Promega) by Genewiz. The plasmid was then linearized by XbaI digestion and purified. In vitro transcription and purification of transcribed pre-mRNA were performed using the MEGAScript T7 kit (Invitrogen) and MEGAclear kit (Invitrogen), respectively, following the manufacturer instructions. The ratio of biotin-16-UTP (Roche) to cold UTP was 1:13 to incorporate approximately two biotin molecules per spliced Ad2 mRNA.
In vitro splicing assay was performed at 30° C. in 25 μL reaction mixtures containing 95 μg HeLa nuclear extract (Promega), 47 nM Ad2 pre-mRNA, 25 U RNasin RNase inhibitor (Promega), 1×SP buffer (0.5 mM ATP, 20 mM creatine phosphate, 1.6 mM MgCl2), and compounds in DMSO (with 1% final concentration of DMSO). After 90 min of incubation, the reaction was stopped by addition of 18 μL of 5M NaCl, and the mixtures were incubated with 10 μL of M-280 streptavidin-coated magnetic beads (Invitrogen) for 30 min at room temperature to capture Ad2 pre- and spliced mRNA. The beads were washed twice with 100 uL buffer containing 10 mM Tris pH=7.5, 1 mM EDTA and 2M NaCl, and then incubated in RNA gel loading buffer containing 95% formamide at 70° C. for 10 min to elute the RNAs. Ad2 RNAs were resolved by 6% TBE-UREA gel, transferred to a nylon membrane, UV cross-linked, and probed with an IR-dye labeled streptavidin (LiCor) using LiCor detection. The amount of spliced RNA was quantified by measuring the band fluorescent intensity using LiCor software.

[3] = tested on: WiDr-R cells: Colon cancer cells (chemically-induced SF3B1 mutant which is resistant to E7107 (R1074H mutation)); experiment: Cell viability assay (CellTiter-Glo), WiDr-R cells; type: cell-based; conditions: 72 hr
Procedure: as §1, §2, §3, §4, §5, §6

[4] = tested on: WiDr cells: Colon cancer cells (wildtype SF3B1); experiment: Cell viability assay (CellTiter-Glo), WiDr cells; type: cell-based; conditions: 72 hr
Procedure: as §1, §2, §3, §4, §5, §6

[5] = tested on: reporter gene controlled by human VEGF promoter; conditions: read-out: IC50, inhibition of VEGF-promoted gene expression; cited from earlier work
U251 human glioma cells = U251 human glioma cells in vitro; read-out: IC50, inhibition of glioma cell proliferation; cited from earlier work

Row | SMILES | Gl50 Panc 05.04 [1] | Emax Panc 05.04 [1] | IC50 [2] | Gl50 WiDr-R [3] | Gl50 WiDr [4] | IC50 [5] | IC50 (U251 human glioma cells)
1 | CC[C@H](O)[C@@H](C)[C@H]1O[C@@H]1C[C@H](C)/C=C/C=C(\C)[C@H]1OC(=O)C[C@H](O)CC[C@@](C)(O)[C@@H](OC(=O)N2CC[N+](C)(C3CCCCCC3)CC2)/C=C/[C@@H]1C.[I-] [Cpd. 1] | 0.6 nM | −61% | 10 nM | 368 nM | 1.1 nM | – | –
2 | CCC(O)C(C)C1OC1CC(C)/C=C/C=C(\C)C1OC(=O)CC(O)CCC(C)(O)C(OC(C)=O)/C=C/C1C (centres unmarked) [Pladienolide B] | – | – | – | – | – | 1.8 nM | 3.5 nM
3 | CC[C@H](O)[C@@H](C)[C@H]1O[C@@H]1C[C@H](C)/C=C/C=C(\C)[C@H]1OC(=O)C[C@H](O)CC[C@@](C)(O)[C@@H](OC(=O)N2CCC[N+](C)(C(C)C)CC2)/C=C/[C@@H]1C.[I-] (some centres unmarked) [Cpd. 10] | 1.3 nM | −65% | 60 nM | >1000 nM | 1.9 nM | – | –
4 | CC[C@H](O)[C@@H](C)[C@H]1O[C@@H]1C[C@H](C)/C=C/C=C(\C)[C@H]1OC(=O)C[C@H](O)CC[C@@](C)(O)[C@@H](OC(=O)N2CC[N+](C)(C(C)C)CC2)/C=C/[C@@H]1C.[I-] [Cpd. 3] | 16.2 nM | −66% | 60 nM | >100 nM | 2.8 nM | – | –
